# In US6420313B1, “Thienylalkylamino-1,3,5-triazines and the use thereof as herbicides” (Bayer Aktiengesellschaft, priority 1998, dated 2002):
# Experiments:
# Assay type in all cases: in vivo
# Lolium = assay: Pre-emergence test/greenhouse, Lolium; conditions: 500 g of ai./ha, after three weeks
# Description: (§1) Solvent: 5 parts by weight of acetone
# (§2) Emulsifier: 1 part by weight of alkylaryl polyglycol ether
# (§3) To produce a suitable preparation of active compound, 1 part by weight of active compound is mixed with the stated amount of solvent, the stated amount of emulsifier is added and the concentrate is diluted with water to the desired concentration.
# (§4) Seeds of the test plants are sown in normal soil. After about 24 hours, the soil is sprayed with the preparation of active compound such that the particular amount of active compound desired is applied per unit area. The concentration of the spray liquor is chosen so that the particular amount of active compound desired is applied in 1000 liters of water per hectare.
# (§5) After three weeks, the degree of damage to the plants is rated in % damage in comparison to the development of the untreated control.
# (§6) 0%=no effect (like untreated control)
# Alopecurus = assay: Pre-emergence test/greenhouse, Alopecurus; conditions: after three weeks
# Description: as §1, §2, §3, §4, §5, §6
# wheat [1] = assay: Pre-emergence test/greenhouse, wheat; conditions: 500 g of ai./ha, after three weeks
# Description: as §1, §2, §3, §4, §5, §6
# Digitaria = assay: Pre-emergence test/greenhouse, Digitaria; conditions: 500 g of ai./ha, after three weeks
# Description: as §1, §2, §3, §4, §5, §6
# Solanum [2] = assay: Pre-emergence test/greenhouse, Solanum; conditions: 500 g of ai./ha, after three weeks
# Description: as §1, §2, §3, §4, §5, §6
# Veronica = assay: Pre-emergence test/greenhouse, Veronica; conditions: 504 h, 500 g of ai./ha, after three weeks, read-out: degree of damage, Veronica
# Description: as §1, §2, §3, §4, §5, §6
# Viola [3] = assay: Pre-emergence test/greenhouse, Viola; conditions: after three weeks
# Description: as §1, §2, §3, §4, §5, §6
# Chenopodium = assay: Pre-emergence test/greenhouse, Chenopodium; conditions: 500 g of ai./ha, after three weeks
# Description: as §1, §2, §3, §4, §5, §6
# Amaranthus = assay: Pre-emergence test/greenhouse, Amaranthus; conditions: after three weeks
# Description: as §1, §2, §3, §4, §5, §6
# barley = assay: Post-emergence test/greenhouse, barley; conditions: after three weeks
# Description: as §1, §2, §3
# (§7) Test plants of a height of 5-15 cm are sprayed with the preparation of active compound such that the particular amounts of active compound desired are applied per unit area. The concentration of the spray liquor is chosen so that the particular amounts of active compound desired are applied in 1000 l of water/ha.
# as §5, §6
# wheat [4] = assay: Post-emergence test/greenhouse, wheat; conditions: after three weeks
# Description: as §1, §2, §3, §7, §5, §6
# Datura [5] = assay: Post-emergence test/greenhouse, Datura; conditions: after three weeks
# Description: as §1, §2, §3, §7, §5, §6
# Ipomoea = assay: Post-emergence test/greenhouse, Ipomoea; conditions: after three weeks
# Description: as §1, §2, §3, §7, §5, §6
# Solanum [6] = assay: Post-emergence test/greenhouse, Solanum; conditions: after three weeks
# Description: as §1, §2, §3, §7, §5, §6
# Viola [7] = assay: Post-emergence test/greenhouse, Viola; conditions: after three weeks
# Description: as §1, §2, §3, §7, §5, §6
# weeds [8] = assay: Post-emergence test, activity against weeds; conditions: result in words
# Description: as §1, §2, §3, §7, §5, §6
# [9] = test system: crop plants, such as, for example, maize, barley and wheat; assay: Post-emergence test, tolerance by crop plants; conditions: result in words
# Description: as §1, §2, §3, §7, §5, §6
# Matricaria = assay: Pre-emergence test/greenhouse, Matricaria; conditions: 500 g of ai./ha, after three weeks
# Description: as §1, §2, §3, §4, §5, §6
# cotton = assay: Pre-emergence test/greenhouse, cotton; conditions: 500 g of ai./ha, after three weeks
# Description: as §1, §2, §3, §4, §5, §6
# Datura [10] = assay: Pre-emergence test/greenhouse, Datura; conditions: 500 g of ai./ha, after three weeks
# Description: as §1, §2, §3, §4, §5, §6
# maize = assay: Pre-emergence test/greenhouse, maize; conditions: after three weeks
# Description: as §1, §2, §3, §4, §5, §6
# Setaria = assay: Pre-emergence test/greenhouse, Setaria; conditions: 500 g of ai./ha, after three weeks
# Description: as §1, §2, §3, §4, §5, §6
# weeds [11] = assay: Pre-emergence test, activity against weeds; conditions: result in words
# Description: as §1, §2, §3, §4, §5, §6
# [12] = test system: crop plants, such as, for example, cotton, maize, wheat and barley; assay: Pre-emergence test, tolerance by crop plants; conditions: result in words
# Description: as §1, §2, §3, §4, §5, §6
# Sinapis = assay: Pre-emergence test/greenhouse, Sinapis; conditions: 1000 g of ai./ha, after three weeks
# Description: as §1, §2, §3, §4, §5, §6
structure (smiles),measurement,setting,value
CCC(CCc1cc(C)sc1C)Nc1nc(NC(C)=O)nc(C(C)(C)F)n1 (stereo not shown) [drawing 264],"degree of damage, Lolium",Lolium,90%
CCC(CCc1cc(Br)cs1)Nc1nc(NC(C)=O)nc(C(C)(C)F)n1 (stereo not shown) [drawing 229],"degree of damage, Alopecurus",Alopecurus; 500 g of ai./ha,95%
same,"degree of damage, wheat",wheat [1],0%
CCC(CCc1cc(C)sc1C)Nc1nc(N)nc(C(C)F)n1 (stereo not shown) [drawing 243],"degree of damage, Digitaria",Digitaria,100%
same,"degree of damage, Solanum",Solanum [2],100%
same,pest or weed control at 500 g/ha,Veronica,100%
CCC(CCc1ccc(Br)s1)Nc1nc(N)nc(C(C)(C)F)n1 (stereo not shown) [drawing 247],"degree of damage, Viola",Viola [3]; 500 g of ai./ha,100%
CCC(CCc1cc(Br)cs1)Nc1nc(NC(C)=O)nc(C(C)F)n1 (stereo not shown) [drawing 238],"degree of damage, Chenopodium",Chenopodium,100%
same,pest or weed control at 500 g/ha,Veronica,100%
CCC(CCc1sccc1Br)Nc1nc(N)nc(C(C)F)n1 (stereo not shown) [drawing 231],"degree of damage, Amaranthus",Amaranthus; 500 g of ai./ha,100%
CCC(CCc1cc(Br)cs1)Nc1nc(N)nc(C(C)(C)F)n1 (racemic) [Example 2],"degree of damage, barley",barley; 125 g of ai./ha,0%
same,"degree of damage, wheat",wheat [4]; 125 g of ai./ha,0%
same,"degree of damage, Datura",Datura [5]; 125 g of ai./ha,95%
same,"degree of damage, Ipomoea",Ipomoea; 125 g of ai./ha,95%
same,"degree of damage, Solanum",Solanum [6]; 125 g of ai./ha,100%
same,"degree of damage, Viola",Viola [7]; 125 g of ai./ha,95%
same,activity against weeds,weeds [8],strong activity against weeds
same,tolerance by crop plants,[9],tolerated well
CCC(CCc1sccc1Br)Nc1nc(NC(C)=O)nc(C(C)F)n1 (stereo not shown) [drawing 242],"degree of damage, Solanum",Solanum [2],100%
same,pest or weed control at 500 g/ha,Veronica,100%
CC(CCCc1cccs1)Nc1nc(N)nc(C(C)(C)F)n1 (stereo not shown) [drawing 245],"degree of damage, Viola",Viola [3]; 1000 g of ai./ha,100%
CCC(CCc1cc(C)sc1C)Nc1nc(NC(C)=O)nc(C(C)(C)F)n1 (stereo not shown) [drawing 254],"degree of damage, Viola",Viola [3]; 500 g of ai./ha,100%
same,"degree of damage, Matricaria",Matricaria,95%
CCC(CCc1sccc1Br)Nc1nc(N)nc(C(C)F)n1 (stereo not shown) [drawing 261],"degree of damage, cotton",cotton,0%
same,"degree of damage, Datura",Datura [10],100%
CCC(CCc1cc(C)sc1C)Nc1nc(NC(C)=O)nc(C(C)(C)F)n1 (stereo not shown) [drawing 234],"degree of damage, maize",maize; 500 g of ai./ha,0%
same,"degree of damage, wheat",wheat [1],0%
CCC(CCc1ccc(Br)s1)Nc1nc(N)nc(C(C)F)n1 (stereo not shown) [drawing 226],"degree of damage, maize",maize; 500 g of ai./ha,0%
same,"degree of damage, wheat",wheat [1],0%
CCC(CCc1cc(Br)cs1)Nc1nc(NC(C)=O)nc(C(C)(C)F)n1 (stereo not shown) [drawing 249],"degree of damage, Viola",Viola [3]; 500 g of ai./ha,100%
same,"degree of damage, Setaria",Setaria,95%
CCC(CCc1ccc(Br)s1)Nc1nc(N)nc(C(C)F)n1 (stereo not shown) [drawing 236],"degree of damage, Digitaria",Digitaria,100%
same,"degree of damage, Chenopodium",Chenopodium,100%
same,"degree of damage, Solanum",Solanum [2],100%
same,pest or weed control at 500 g/ha,Veronica,100%
CCC(CCc1ccc(Br)s1)Nc1nc(N)nc(C(C)(C)F)n1 (racemic) [Example 5],"degree of damage, barley",barley; 500 g of ai./ha,0%
same,"degree of damage, wheat",wheat [4]; 500 g of ai./ha,0%
same,"degree of damage, Datura",Datura [5]; 500 g of ai./ha,100%
same,"degree of damage, Ipomoea",Ipomoea; 500 g of ai./ha,95%
same,"degree of damage, Solanum",Solanum [6]; 500 g of ai./ha,100%
same,"degree of damage, Viola",Viola [7]; 500 g of ai./ha,95%
same,activity against weeds,weeds [11],strong activity against weeds
same,tolerance by crop plants,[12],largely tolerated well
same,activity against weeds,weeds [8],strong activity against weeds
same,tolerance by crop plants,[9],tolerated well
CC(CCCc1cccs1)Nc1nc(N)nc(C(C)(C)F)n1 (stereo not shown) [drawing 225],"degree of damage, maize",maize; 1000 g of ai./ha,0%
same,"degree of damage, Alopecurus",Alopecurus; 1000 g of ai./ha,80%
same,"degree of damage, Amaranthus",Amaranthus; 1000 g of ai./ha,95%
same,"degree of damage, Sinapis",Sinapis,90%
